Tests used:
Format in all cases: in vivo, human
[1] = tested on: healthy subjects; experiment: Vital signs, supine blood pressure; settings: first administration, mean±SD
Excerpt: (§1) The enrolled subjects came to the study center for each treatment period on Day −2 and participated in a run-in (all study procedures performed without study drug administration) on Day −1. On Day 1, subjects were randomized to one of the two possible sequences of the two up-titration regimens A and B (ratio 1:1). On Day 1, all subjects received placebo; the first study drug administration (or its matching placebo) occurred on Day 2. Regimen A consisted of the novel up-titration regimen: ponesimod was administered once daily (o.d.) orally at a dose of 2 mg on Day 2 and Day 3, 3 mg on Day 4 and Day 5, 4 mg on Day 6 and Day 7, 5 mg on Day 8, 6 mg on Day 9, 7 mg on Day 10, 8 mg on Day 11, 9 mg on Day 12, 10 mg on Day 13 and Day 14, and 20 mg on Day 15. The reference regimen (regimen B) was based on previous studies (Olsson T. et al., Oral ponesimod in relapsing-remitting multiple sclerosis: a randomised phase II trial. J Neurol Neurosurg Psychiatry. 2014; 85 (11): 1198-1208; and Vaclavkova A. et al., Oral ponesimod in patients with chronic plaque psoriasis: a randomised, double-blind, placebo-controlled phase 2 trial. Lancet. 2014; 384 (9959): 2036-2045) and consisted of an o.d. oral administration of ponesimod at a dose of 10 mg for 7 days (i.e., from Day 2 to Day 8) and 20 mg on Day 9. From Day 10 to Day 15 subjects received o.d. the matching placebo. In the placebo group (1:1 sex ratio), subjects received placebo from Day 1 to Day 15. All treatments were administered at the same time in the morning (fasted condition) with approximately 240 mL of water.
Safety and tolerability were evaluated by monitoring adverse events (AEs), vital signs measurements (supine blood pressure), pulmonary function tests (PFTs; i.e., FEV1 and FVC), clinical laboratory, physical, and neurological examinations. Recording of blood pressure was performed at the same time-points as 12-lead ECG.

[2] = tested on: circulating total lymphocyte count; experiment: Total lymphocyte count by hemocytometry; settings: for total lymphocyte count, mean percentage change from baseline (±SD): Day 3; for total lymphocyte count, decrease from baseline: Day 6
Excerpt: The enrolled subjects came to the study center for each treatment period on Day −2 and participated in a run-in (all study procedures performed without study drug administration) on Day −1. On Day 1, subjects were randomized to one of the two possible sequences of the two up-titration regimens A and B (ratio 1:1). On Day 1, all subjects received placebo; the first study drug administration (or its matching placebo) occurred on Day 2. Regimen A consisted of the novel up-titration regimen: ponesimod was administered once daily (o.d.) orally at a dose of 2 mg on Day 2 and Day 3, 3 mg on Day 4 and Day 5, 4 mg on Day 6 and Day 7, 5 mg on Day 8, 6 mg on Day 9, 7 mg on Day 10, 8 mg on Day 11, 9 mg on Day 12, 10 mg on Day 13 and Day 14, and 20 mg on Day 15. The reference regimen (regimen B) was based on previous studies (Olsson T. et al., Oral ponesimod in relapsing-remitting multiple sclerosis: a randomised phase II trial. J Neurol Neurosurg Psychiatry. 2014; 85 (11): 1198-1208; and Vaclavkova A. et al., Oral ponesimod in patients with chronic plaque psoriasis: a randomised, double-blind, placebo-controlled phase 2 trial. Lancet. 2014; 384 (9959): 2036-2045) and consisted of an o.d. oral administration of ponesimod at a dose of 10 mg for 7 days (i.e., from Day 2 to Day 8) and 20 mg on Day 9. From Day 10 to Day 15 subjects received o.d. the matching placebo. In the placebo group (1:1 sex ratio), subjects received placebo from Day 1 to Day 15. All treatments were administered at the same time in the morning (fasted condition) with approximately 240 mL of water. Blood samples of about 3 mL were collected in ethylene di-amine tetra acetic acid tubes at pre-dose and 3 h after study drug administration from Day 1 to Day 15 in each treatment period. After centrifugation, plasma was transferred into a polypropylene tube and stored at −21° C. (±5° C.) pending analysis. Plasma concentrations of ponesimod were determined using a validated liquid chromatography coupled to tandem mass spectrometry assay with a lower limit of quantification of 1 ng/mL (Brossard P. et al., Pharmacokinetics and pharmacodynamics of ponesimod, a selective S1 P1 receptor modulator, in the first-in-human study. British journal of clinical pharmacology. 2013; 76 (6): 888-896). Trough samples were taken on Day −1, Day 3, Day 6, Day 9, Day 12, and Day 15 of each treatment period and at EOFP and EOS to assess total lymphocyte count by hemocytometry. Cardiodynamic and pharmacodynamic data are expressed as mean±SD. Repeated measure one-way ANOVAs followed by Tukey's multiple-comparisons tests were used to perform inter-group (i.e., placebo vs. regimen A vs. regimen B) comparisons. Student's t-tests were employed to perform intra-group (baseline vs. treatment) comparisons. Differences were considered to be statistically significant at p <0.05. SAS® version 9.2 (SAS Institute, Cary, NC, USA) was used for the statistical analysis and descriptive statistics of clinical data.

[3] = Plasma concentrations of ponesimod by LC-MS/MS
Excerpt: as §1, with “All treatments were administered at the same time in the morning (fasted condition) with approximately 240 mL of water.” left out
Blood samples of about 3 mL were collected in ethylene di-amine tetra acetic acid tubes at pre-dose and 3 h after study drug administration from Day 1 to Day 15 in each treatment period. […] Plasma concentrations of ponesimod were determined using a validated liquid chromatography coupled to tandem mass spectrometry assay with a lower limit of quantification of 1 ng/mL (Brossard P. et al., Pharmacokinetics and pharmacodynamics of ponesimod, a selective S1 P1 receptor modulator, in the first-in-human study. British journal of clinical pharmacology. 2013; 76 (6): 888-896). […]

[4] = tested on: peripheral blood lymphocytes; experiment: Repeated daily oral dosing, number of peripheral blood lymphocytes (background finding); settings: repeated daily oral dosing of 5 mg or more to humans

SMILES: CCC/N=C1\S/C(=C\c2ccc(OC[C@H](O)CO)c(Cl)c2)C(=O)N1c1ccccc1C [ponesimod, (R)-5-[3-chloro-4-(2,3-dihydroxy-propoxy)-benz[Z]ylidene]-2-([Z]-propylimino)-3-o-tolyl-thiazolidin-4-one]
- decrease in DBP ([1]; regimen A): −7±5.3 mmHg
- decrease in SBP ([1]; regimen A): −4±4.4 mmHg
- decrease in DBP ([1]; regimen B): −10±4.4 mmHg
- decrease in SBP ([1]; regimen B): −5±7.7 mmHg
- recovery of individual total lymphocyte count ([2]; at EOFP and EOS, normal range i.e. 80% of baseline): returned to within the normal range
- total lymphocyte count, mean percentage change from baseline (±SD) ([2]; regimen A): −11.6±10.2%
- total lymphocyte count, decrease from baseline ([2]; regimen A): −15.0±14.4%
- total lymphocyte count, decrease following the last dose of 10 mg ([2]; regimen A, Day 15 before administration of the dose of 20 mg): −50.8±12.1%
- total lymphocyte count, mean percentage change from baseline (±SD) ([2]; regimen B): −28.9±12.2%
- total lymphocyte count, decrease from baseline ([2]; regimen B): −46.5±12.3%
- total lymphocyte count, decrease following the last dose of 10 mg ([2]; regimen B, Day 9 before administration of the dose of 20 mg): −52.3±11.0%
- concentration at 3 h ([3]; human, plasma, oral, 20 mg, regimen A, Day 15, read-out: plasma concentration 3 h after 20 mg of ponesimod): 0.144 ± 0.0369 µg/mL
- plasma concentration 3 h after 20 mg of ponesimod ([3]; regimen B, Day 9): 0.144 ± 0.0419 µg/mL
- 10 mg steady-state conditions attained ([3]; regimen B, visual inspection): Day 6
- reduction in the number of peripheral blood lymphocytes [4]: consistent, sustained, and dose-dependent reduction
